Where “and” joins values, the source holds several entries; their conditions need not be identical. Equal values may be shown once. Inconclusive results and toxic doses are left out.
Test system: P388 leukemia ip, CD2F1 mice, survival T/C
Assay: NCI In Vivo Anticancer Drug Screen. Data for tumor model P388 Leukemia (intraperitoneal) in CD2F1 (CDF1) mice
Details: endpoint: median survival time, higher = longer survival
Outline: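 Mice carrying the transplanted tumor received test compound or vehicle. Survival was recorded in each group, and the value is the treated-group measurement divided by that of the vehicle-treated control group.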

[1] = dose: 50.0 mg/kg/injection, schedule: Q01DX009 (ip), vehicle: saline
[2] = dose: 100.0 mg/kg/injection, schedule: Q01DX009 (ip), vehicle: saline
[3] = dose: 200.0 mg/kg/injection, schedule: Q01DX009 (ip), vehicle: saline
[4] = dose: 25.0 mg/kg/injection, schedule: Q01DX005 (ip), vehicle: Klucel (hydroxypropylcellulose) (HPC)
[5] = dose: 50.0 mg/kg/injection, schedule: Q01DX005 (ip), vehicle: Klucel (hydroxypropylcellulose) (HPC)
[6] = dose: 100.0 mg/kg/injection, schedule: Q01DX005 (ip), vehicle: Klucel (hydroxypropylcellulose) (HPC)
[7] = dose: 200.0 mg/kg/injection, schedule: Q01DX005 (ip), vehicle: Klucel (hydroxypropylcellulose) (HPC)
[8] = dose: 60.0 mg/kg/injection, schedule: Q01DX005 (ip), vehicle: Klucel (hydroxypropylcellulose) (HPC)
[9] = dose: 100.0 mg/kg/injection, schedule: Q04DX002 (ip), vehicle: saline with Tween-80
[10] = dose: 200.0 mg/kg/injection, schedule: Q04DX002 (ip), vehicle: saline with Tween-80
[11] = dose: 60.0 mg/kg/injection, schedule: Q01DX005 (ip), vehicle: saline with Tween-80
[12] = dose: 100.0 mg/kg/injection, schedule: Q04DX002 (ip), vehicle: saline
[13] = dose: 200.0 mg/kg/injection, schedule: Q04DX002 (ip), vehicle: saline
[14] = dose: 400.0 mg/kg/injection, schedule: Q04DX002 (ip), vehicle: saline

CCCCCCC(/C=C/c1ccc(Cl)c(Cl)c1)=N\NC(=O)C[n+]1ccccc1 was tested, and the T/C [1] was 99 % of control, the T/C [2] was 101 % of control and the T/C [3] was 101 % of control.
For CC(CN1CC(=O)NC(=O)C1)N1CC(=O)NC(=O)C1 (stereo not given), the T/C (dose: 6.48 mg/kg/injection, schedule: Q04DX002 (ip), vehicle: saline) was 117 % of control, the T/C (dose: 50.0 mg/kg/injection, schedule: Q04DX002 (ip), vehicle: Klucel (hydroxypropylcellulose) (HPC)) was 123 % of control and the T/C (dose: 64.8 mg/kg/injection, schedule: Q04DX003 (ip), vehicle: saline) was 119 % of control. The T/C (dose: 77.8 mg/kg/injection, schedule: Q04DX002 (ip), vehicle: saline with Tween-80) was 118 % of control, the T/C (dose: 180.0 mg/kg/injection, schedule: Q04DX002 (ip), vehicle: saline) was 156 % of control and the T/C (dose: 180.0 mg/kg/injection, schedule: Q04DX003 (ip), vehicle: saline) was 161 % of control. The T/C (dose: 200.0 mg/kg/injection, schedule: Q04DX002 (ip), vehicle: Klucel (hydroxypropylcellulose) (HPC)) was 153 % of control and 163 % of control, the T/C (dose: 216.0 mg/kg/injection, schedule: Q04DX002 (ip), vehicle: saline with Tween-80) was 152 % of control and the T/C (dose: 300.0 mg/kg/injection, schedule: Q04DX002 (ip), vehicle: saline) was 174 % of control. The T/C (dose: 300.0 mg/kg/injection, schedule: Q04DX003 (ip), vehicle: saline) was 214 % of control and 217 % of control, the T/C (dose: 360.0 mg/kg/injection, schedule: Q04DX002 (ip), vehicle: saline with Tween-80) was 195 % of control and the T/C (dose: 400.0 mg/kg/injection, schedule: Q04DX002 (ip), vehicle: Klucel (hydroxypropylcellulose) (HPC)) was 223 % of control and 94 % of control. For the same molecule, the T/C (dose: 500.0 mg/kg/injection, schedule: Q04DX002 (ip), vehicle: saline) was 100 % of control, the T/C (dose: 500.0 mg/kg/injection, schedule: Q04DX003 (ip), vehicle: saline) was 118 % of control and 219 % of control and the T/C (dose: 600.0 mg/kg/injection, schedule: Q04DX002 (ip), vehicle: saline with Tween-80) was 213 % of control.
Cc1ccc(C(SCC(N)C(=O)O)(c2ccccc2)c2ccccc2)cc1 (stereo not given) was tested, and the T/C (dose: 12.5 mg/kg/injection, schedule: Q01DX009 (ip), vehicle: saline with Tween-80) was 186 % of control, the T/C (dose: 25.0 mg/kg/injection, schedule: Q01DX009 (ip), vehicle: saline with Tween-80) was 168 % of control and the T/C (dose: 50.0 mg/kg/injection, schedule: Q04DX003 (ip), vehicle: saline with Tween-80) was 177 % of control. The T/C (dose: 100.0 mg/kg/injection, schedule: Q04DX003 (ip), vehicle: saline with Tween-80) was 218 % of control, the T/C (dose: 132.0 mg/kg/injection, schedule: Q04DX003 (ip), vehicle: saline with Tween-80) was 195 % of control and the T/C (dose: 200.0 mg/kg/injection, schedule: Q04DX003 (ip), vehicle: saline with Tween-80) was 254 % of control and 272 % of control. For the same molecule, the T/C (dose: 300.0 mg/kg/injection, schedule: Q04DX003 (ip), vehicle: saline with Tween-80) was 263 % of control.
For c1ccc2c3c([nH]c2c1)CN1CCCCC1C3 (stereo not given), the T/C (dose: 6.25 mg/kg/injection, schedule: Q01DX005 (ip), vehicle: Klucel (hydroxypropylcellulose) (HPC)) was 92 % of control, the T/C (dose: 12.5 mg/kg/injection, schedule: Q01DX005 (ip), vehicle: Klucel (hydroxypropylcellulose) (HPC)) was 92 % of control and the T/C [4] was 93 % of control. The T/C [5] was 99 % of control, the T/C [6] was 96 % of control and the T/C [7] was 112 % of control.
O=C(O)CSCc1cc2c3ccccc3sc2c2ccccc12 was tested, and the T/C [8] was 100 % of control, the T/C (dose: 120.0 mg/kg/injection, schedule: Q01DX005 (ip), vehicle: Klucel (hydroxypropylcellulose) (HPC)) was 93 % of control and the T/C (dose: 240.0 mg/kg/injection, schedule: Q01DX005 (ip), vehicle: Klucel (hydroxypropylcellulose) (HPC)) was 96 % of control.
CCCCc1c2cnccc2c(CCCC)c2c1[nH]c1ccccc12 was tested, and the T/C (dose: 25.0 mg/kg/injection, schedule: Q04DX002 (ip), vehicle: saline with Tween-80) was 105 % of control, the T/C (dose: 50.0 mg/kg/injection, schedule: Q04DX002 (ip), vehicle: saline with Tween-80) was 100 % of control and the T/C [9] was 96 % of control. For the same molecule, the T/C [10] was 91 % of control.
With CC1=CC(C)(C)N=C2SC(COc3ccccc3)=NN12 the T/C [4] was 116 % of control, the T/C [5] was 109 % of control and the T/C [6] was 107 % of control. The T/C [7] was 104 % of control.
For CCN(CC)c1ccc2cc(-c3nc4ccccc4s3)c(=O)oc2c1, the T/C (dose: 100.0 mg/kg/injection, schedule: Q04DX003 (ip), vehicle: Klucel (hydroxypropylcellulose) (HPC)) was 92 % of control, the T/C (dose: 200.0 mg/kg/injection, schedule: Q04DX003 (ip), vehicle: Klucel (hydroxypropylcellulose) (HPC)) was 92 % of control and the T/C (dose: 400.0 mg/kg/injection, schedule: Q04DX003 (ip), vehicle: Klucel (hydroxypropylcellulose) (HPC)) was 104 % of control.
With CSC(=S)N/N=C\C(O)C(O)C(O)C(O)CO (stereo not given) the T/C (dose: 6.25 mg/kg/injection, schedule: Q04DX003 (ip), vehicle: saline) was 104 % of control, the T/C (dose: 12.5 mg/kg/injection, schedule: Q04DX003 (ip), vehicle: saline) was 109 % of control and the T/C (dose: 25.0 mg/kg/injection, schedule: Q04DX003 (ip), vehicle: saline) was 102 % of control.
With CCOC(=O)N/N=C(\C)c1nc2ccccc2[nH]1 the T/C (dose: 15.0 mg/kg/injection, schedule: Q01DX005 (ip), vehicle: saline with Tween-80) was 106 % of control, the T/C (dose: 30.0 mg/kg/injection, schedule: Q01DX005 (ip), vehicle: saline with Tween-80) was 108 % of control and the T/C [8] was 100 % of control. For the same molecule, the T/C [11] was 101 % of control.
In the case of O=C(O)CCNCCC(=O)O, the T/C (dose: 50.0 mg/kg/injection, schedule: Q04DX003 (ip), vehicle: saline) is reported as 96 % of control, the T/C (dose: 100.0 mg/kg/injection, schedule: Q04DX003 (ip), vehicle: saline) is reported as 123 % of control and 97 % of control and the T/C (dose: 200.0 mg/kg/injection, schedule: Q04DX003 (ip), vehicle: saline) is reported as 100 % of control. For the same molecule, the T/C (dose: 400.0 mg/kg/injection, schedule: Q04DX003 (ip), vehicle: saline) was 95 % of control.
With CCOC1(OCC)N(S(=O)(=O)c2ccc(C)cc2)C(=O)C(=O)N1S(=O)(=O)c1ccc(C)cc1 the T/C [12] was 100 % of control, the T/C [13] was 106 % of control and the T/C [14] was 103 % of control.
For O=C(O)CCCCCCCCCCNC(=O)Nc1cccc(C(F)(F)F)c1, the T/C (dose: 25.0 mg/kg/injection, schedule: Q01DX009 (ip), vehicle: saline) was 88 % of control, the T/C [1] was 98 % of control and the T/C [2] was 104 % of control. For the same molecule, the T/C [3] was 111 % of control.
In the case of O=C(NCCCl)Nc1[nH]c(=O)ncc1Cl, the T/C [11] is reported as 103 % of control, the T/C (dose: 120.0 mg/kg/injection, schedule: Q01DX005 (ip), vehicle: saline with Tween-80) is reported as 100 % of control and the T/C (dose: 240.0 mg/kg/injection, schedule: Q01DX005 (ip), vehicle: saline with Tween-80) is reported as 101 % of control.
CC(=O)Nc1cc2nc[nH]c2cn1 was tested, and the T/C [12] was 99 % of control, the T/C [13] was 106 % of control and the T/C [14] was 106 % of control.
In the case of CC(/C=C/C(=O)NO)=C\C(C)C(=O)c1ccc(N(C)C)cc1 (stereo not given), the T/C (dose: 2.19 mg/kg/injection, schedule: Q01DX009 (ip), vehicle: Klucel (hydroxypropylcellulose) (HPC)) is reported as 107 % of control, the T/C (dose: 4.38 mg/kg/injection, schedule: Q01DX009 (ip), vehicle: Klucel (hydroxypropylcellulose) (HPC)) is reported as 114 % of control and the T/C (dose: 8.75 mg/kg/injection, schedule: Q01DX009 (ip), vehicle: Klucel (hydroxypropylcellulose) (HPC)) is reported as 122 % of control and 96 % of control. For the same molecule, the T/C (dose: 8.75 mg/kg/injection, schedule: Q01DX009 (ip), vehicle: saline with Tween-80) was 152 % of control, the T/C (dose: 17.5 mg/kg/injection, schedule: Q01DX009 (ip), vehicle: Klucel (hydroxypropylcellulose) (HPC)) was 91 % of control and the T/C (dose: 17.5 mg/kg/injection, schedule: Q01DX009 (ip), vehicle: saline with Tween-80) was 90 % of control.
For CC1(C)CC(=O)C=C(NCCCCNC2=CC(=O)CC(C)(C)C2)C1, the T/C (dose: 50.0 mg/kg/injection, schedule: Q01DX009 (ip), vehicle: Klucel (hydroxypropylcellulose) (HPC)) was 95 % of control, the T/C (dose: 100.0 mg/kg/injection, schedule: Q01DX009 (ip), vehicle: Klucel (hydroxypropylcellulose) (HPC)) was 95 % of control and the T/C (dose: 200.0 mg/kg/injection, schedule: Q01DX009 (ip), vehicle: Klucel (hydroxypropylcellulose) (HPC)) was 95 % of control.
For O=C1OCCc2c1[nH]c1ccccc21, the T/C [9] was 100 % of control and the T/C [10] was 100 % of control.

Source: PubChem BioAssay AID330 (DTP/NCI, 2004)
